Experimental data from US5530126A, “Process for the preparation of substituted 6-(pyrazol-3yl)-1,4-benzoxazin-3-ones” (Monsanto Company, priority 1994, dated 1996).

How the values were obtained:
Assay type in all cases: in vivo
Annual bluegrass [1] = assay: Pre-emergence herbicide test; conditions: read-out: % plant inhibition (Anbg); for inhibition at 1120 g/ha: 1.12 kg/ha; for inhibition at 11210 g/ha: 11.21 kg/ha
In short: (§1)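 Readout: % inhibition per species, observed ~10-14 d after seeding and treatment. Treatment: known amount of active in acetone or water onto seed bed, covered with untreated soil; greenhouse, watered from below.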

Barnyardgrass [2] = assay: Pre-emergence herbicide test; conditions: Echinochloa crus-galli, read-out: % plant inhibition (Bygr); for inhibition at 1120 g/ha: 1.12 kg/ha; for inhibition at 11210 g/ha: 11.21 kg/ha
In short: as §1

Cocklebur [3] = assay: Pre-emergence herbicide test; conditions: Xanthium strumarium, read-out: % plant inhibition (Cobu); for inhibition at 1120 g/ha: 1.12 kg/ha; for inhibition at 11210 g/ha: 11.21 kg/ha
In short: as §1

Downy Brome [4] = assay: Pre-emergence herbicide test; conditions: Bromus tectorum, read-out: % plant inhibition (Dobr); for inhibition at 1120 g/ha: 1.12 kg/ha; for inhibition at 11210 g/ha: 11.21 kg/ha
In short: as §1

Indian Mustard [5] = assay: Pre-emergence herbicide test; conditions: Brassica juncea, read-out: % plant inhibition (Inmu); for inhibition at 1120 g/ha: 1.12 kg/ha; for inhibition at 11210 g/ha: 11.21 kg/ha
In short: as §1

Morningglory [6] = assay: Pre-emergence herbicide test; conditions: Ipomoea, read-out: % plant inhibition (Mogl); for inhibition at 1120 g/ha: 1.12 kg/ha; for inhibition at 11210 g/ha: 11.21 kg/ha
In short: as §1

Seedling johnsongrass [7] = assay: Pre-emergence herbicide test; conditions: Sorghum halepense, read-out: % plant inhibition (Sejg); for inhibition at 1120 g/ha: 1.12 kg/ha; for inhibition at 11210 g/ha: 11.21 kg/ha
In short: as §1

Velvetleaf [8] = assay: Pre-emergence herbicide test; conditions: Abutilon theophrasti, read-out: % plant inhibition (Vele); for inhibition at 1120 g/ha: 1.12 kg/ha; for inhibition at 11210 g/ha: 11.21 kg/ha
In short: as §1

Wild buckwheat [9] = assay: Pre-emergence herbicide test; conditions: Fallopia convolvulus, read-out: % plant inhibition (Wibw); for inhibition at 1120 g/ha: 1.12 kg/ha; for inhibition at 11210 g/ha: 11.21 kg/ha
In short: as §1

Yellow nutsedge [10] = assay: Pre-emergence herbicide test; conditions: Cyperus, read-out: % plant inhibition (Yens); for inhibition at 1120 g/ha: 1.12 kg/ha; for inhibition at 11210 g/ha: 11.21 kg/ha
In short: as §1

Annual bluegrass [11] = assay: Post-emergence herbicide test; conditions: read-out: % plant inhibition (Anbg); for inhibition at 1120 g/ha: 1.12 kg/ha; for inhibition at 11210 g/ha: 11.21 kg/ha
In short: (§2)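 Soil pans, sub-irrigated; plants sprayed at 2–3 wk; 170.3 kPa atomizer; 1870 L/Ha; ~0.4% v/v emulsifier; % inhibition vs control ~11 d post-spray, sometimes ~25 d.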

Barnyardgrass [12] = assay: Post-emergence herbicide test; conditions: Echinochloa crus-galli, read-out: % plant inhibition (Bygr); for inhibition at 1120 g/ha: 1.12 kg/ha; for inhibition at 11210 g/ha: 11.21 kg/ha
In short: as §2

Cocklebur [13] = assay: Post-emergence herbicide test; conditions: Xanthium strumarium, read-out: % plant inhibition (Cobu); for inhibition at 1120 g/ha: 1.12 kg/ha; for inhibition at 11210 g/ha: 11.21 kg/ha
In short: as §2

Downy Brome [14] = assay: Post-emergence herbicide test; conditions: Bromus tectorum, read-out: % plant inhibition (Dobr); for inhibition at 1120 g/ha: 1.12 kg/ha; for inhibition at 11210 g/ha: 11.21 kg/ha
In short: as §2

Indian Mustard [15] = assay: Post-emergence herbicide test; conditions: Brassica juncea, read-out: % plant inhibition (Inmu); for inhibition at 1120 g/ha: 1.12 kg/ha; for inhibition at 11210 g/ha: 11.21 kg/ha
In short: as §2

Morningglory [16] = assay: Post-emergence herbicide test; conditions: Ipomoea, read-out: % plant inhibition (Mogl); for inhibition at 1120 g/ha: 1.12 kg/ha; for inhibition at 11210 g/ha: 11.21 kg/ha
In short: as §2

Seedling johnsongrass [17] = assay: Post-emergence herbicide test; conditions: Sorghum halepense, read-out: % plant inhibition (Sejg); for inhibition at 1120 g/ha: 1.12 kg/ha; for inhibition at 11210 g/ha: 11.21 kg/ha
In short: as §2

Velvetleaf [18] = assay: Post-emergence herbicide test; conditions: Abutilon theophrasti, read-out: % plant inhibition (Vele); for inhibition at 1120 g/ha: 1.12 kg/ha; for inhibition at 11210 g/ha: 11.21 kg/ha
In short: as §2

Wild buckwheat [19] = assay: Post-emergence herbicide test; conditions: Fallopia convolvulus, read-out: % plant inhibition (Wibw); for inhibition at 1120 g/ha: 1.12 kg/ha; for inhibition at 11210 g/ha: 11.21 kg/ha
In short: as §2

Yellow nutsedge [20] = assay: Post-emergence herbicide test; conditions: Cyperus, read-out: % plant inhibition (Yens); for inhibition at 1120 g/ha: 1.12 kg/ha; for inhibition at 11210 g/ha: 11.21 kg/ha
In short: as §2

Row | SMILES | inhibition at 1120 g/ha (Annual bluegrass [1]) | inhibition at 1120 g/ha (Barnyardgrass [2]) | inhibition at 1120 g/ha (Cocklebur [3]) | inhibition at 1120 g/ha (Downy Brome [4]) | inhibition at 1120 g/ha (Indian Mustard [5]) | inhibition at 1120 g/ha (Morningglory [6]) | inhibition at 1120 g/ha (Seedling johnsongrass [7]) | inhibition at 1120 g/ha (Velvetleaf [8]) | inhibition at 1120 g/ha (Wild buckwheat [9]) | inhibition at 1120 g/ha (Yellow nutsedge [10]) | inhibition at 1120 g/ha (Annual bluegrass [11]) | inhibition at 1120 g/ha (Barnyardgrass [12]) | inhibition at 1120 g/ha (Cocklebur [13]) | inhibition at 1120 g/ha (Downy Brome [14]) | inhibition at 1120 g/ha (Indian Mustard [15]) | inhibition at 1120 g/ha (Morningglory [16]) | inhibition at 1120 g/ha (Seedling johnsongrass [17]) | inhibition at 1120 g/ha (Velvetleaf [18]) | inhibition at 1120 g/ha (Wild buckwheat [19]) | inhibition at 1120 g/ha (Yellow nutsedge [20]) | further results
1 | Cn1nc(-c2cc(O)c(Br)cc2F)c(Cl)c1C(F)(F)F [Compound 95] | 30% | 50% | 20% | 20% | 80% | 40% | 50% | 90% | 100% | 20% | 60% | 80% | 100% | 40% | 70% | 80% | 50% | 100% | 100% | 10% | –
2 | Cc1cc(-c2nn(C)c(C(F)F)c2Cl)c(F)cc1Cl [Compound 126] | 100% | 100% | 50% | 100% | 100% | 100% | 100% | 100% | 100% | 0% | 40% | 50% | 30% | 0% | 40% | 60% | 30% | 90% | 80% | 10% | –
3 | Cn1nc(-c2cc(CO)c(Cl)cc2F)c(Cl)c1C(F)(F)F [Compound 122, 2-chloro-5-[4-chloro-1-methyl-5-(trifluoromethyl)-1H-pyrazol-3-yl]-4-fluorobenzenemethanol] | 20% | 80% | 40% | 20% | 100% | 80% | 40% | 100% | 70% | 0% | 20% | 70% | 60% | 20% | 50% | 80% | 70% | 100% | 90% | 20% | –
4 | COCCOc1cc(-c2nn(C)c(C(F)(F)F)c2Cl)c(F)cc1Cl [Compound 270, 4-Chloro-3-(4-chloro-2-fluoro-5-(methoxyethoxy)phenyl)-1-methyl-5-(trifluoromethyl)-1H-pyrazole] | 70% | 90% | 60% | 100% | 100% | 100% | 70% | 100% | 100% | 30% | 90% | 100% | 90% | 100% | 90% | 100% | 90% | 100% | 100% | 60% | –
5 | CCC(C)COC(=O)COc1cc(-c2nn(C)c(C(F)(F)F)c2Cl)c(F)cc1Cl (stereo not drawn) [Compound 287] | 0% | 0% | 90% | 0% | 60% | 70% | 0% | 100% | 80% | 30% | 0% | 70% | 100% | 10% | 20% | 100% | 80% | 100% | 90% | 10% | –
6 | Cn1nc(-c2cc(S(=O)(=O)Cl)c(Cl)cc2Cl)c(Cl)c1C(F)(F)F [Compound 89] | – | – | – | – | – | – | – | – | – | – | – | – | – | – | – | – | – | – | – | – | inhibition at 11210 g/ha (Annual bluegrass [1]): 0%; inhibition at 11210 g/ha (Barnyardgrass [2]): 0%; inhibition at 11210 g/ha (Cocklebur [3]): 0%; inhibition at 11210 g/ha (Downy Brome [4]): 0%; inhibition at 11210 g/ha (Indian Mustard [5]): 70%; inhibition at 11210 g/ha (Morningglory [6]): 20%; inhibition at 11210 g/ha (Seedling johnsongrass [7]): 0%; inhibition at 11210 g/ha (Velvetleaf [8]): 90%; inhibition at 11210 g/ha (Wild buckwheat [9]): 30%; inhibition at 11210 g/ha (Yellow nutsedge [10]): 10%; inhibition at 11210 g/ha (Annual bluegrass [11]): 10%; inhibition at 11210 g/ha (Barnyardgrass [12]): 20%; inhibition at 11210 g/ha (Cocklebur [13]): 100%; inhibition at 11210 g/ha (Downy Brome [14]): 10%; inhibition at 11210 g/ha (Indian Mustard [15]): 80%; inhibition at 11210 g/ha (Morningglory [16]): 100%; inhibition at 11210 g/ha (Seedling johnsongrass [17]): 70%; inhibition at 11210 g/ha (Velvetleaf [18]): 100%; inhibition at 11210 g/ha (Wild buckwheat [19]): 50%; inhibition at 11210 g/ha (Yellow nutsedge [20]): 0%
7 | COc1cc(F)c(-c2c(Cl)c(C(F)(F)F)nn2C)cc1F [Compound 71] | – | – | – | – | – | – | – | – | – | – | – | – | – | – | – | – | – | – | – | – | inhibition at 11210 g/ha (Annual bluegrass [1]): 90%; inhibition at 11210 g/ha (Barnyardgrass [2]): 0%; inhibition at 11210 g/ha (Cocklebur [3]): 0%; inhibition at 11210 g/ha (Downy Brome [4]): 10%; inhibition at 11210 g/ha (Indian Mustard [5]): 30%; inhibition at 11210 g/ha (Morningglory [6]): 30%; inhibition at 11210 g/ha (Seedling johnsongrass [7]): 40%; inhibition at 11210 g/ha (Velvetleaf [8]): 60%; inhibition at 11210 g/ha (Wild buckwheat [9]): 70%; inhibition at 11210 g/ha (Yellow nutsedge [10]): 0%; inhibition at 11210 g/ha (Annual bluegrass [11]): 0%; inhibition at 11210 g/ha (Barnyardgrass [12]): 0%; inhibition at 11210 g/ha (Cocklebur [13]): 30%; inhibition at 11210 g/ha (Downy Brome [14]): 0%; inhibition at 11210 g/ha (Indian Mustard [15]): 20%; inhibition at 11210 g/ha (Morningglory [16]): 20%; inhibition at 11210 g/ha (Seedling johnsongrass [17]): 0%; inhibition at 11210 g/ha (Velvetleaf [18]): 20%; inhibition at 11210 g/ha (Wild buckwheat [19]): 40%; inhibition at 11210 g/ha (Yellow nutsedge [20]): 0%
8 | Cn1nc(-c2cc(Oc3ccc(C(F)(F)F)cc3)c(Cl)cc2F)c(Cl)c1C(F)(F)F [Compound 205] | – | – | – | – | – | – | – | – | – | – | – | – | – | – | – | – | – | – | – | – | inhibition at 11210 g/ha (Annual bluegrass [1]): 0%; inhibition at 11210 g/ha (Barnyardgrass [2]): 0%; inhibition at 11210 g/ha (Cocklebur [3]): 0%; inhibition at 11210 g/ha (Downy Brome [4]): 0%; inhibition at 11210 g/ha (Indian Mustard [5]): 30%; inhibition at 11210 g/ha (Morningglory [6]): 0%; inhibition at 11210 g/ha (Seedling johnsongrass [7]): 20%; inhibition at 11210 g/ha (Velvetleaf [8]): 10%; inhibition at 11210 g/ha (Wild buckwheat [9]): 10%; inhibition at 11210 g/ha (Yellow nutsedge [10]): 0%; inhibition at 11210 g/ha (Annual bluegrass [11]): 40%; inhibition at 11210 g/ha (Barnyardgrass [12]): 10%; inhibition at 11210 g/ha (Cocklebur [13]): 60%; inhibition at 11210 g/ha (Downy Brome [14]): 50%; inhibition at 11210 g/ha (Indian Mustard [15]): 60%; inhibition at 11210 g/ha (Morningglory [16]): 80%; inhibition at 11210 g/ha (Seedling johnsongrass [17]): 70%; inhibition at 11210 g/ha (Velvetleaf [18]): 100%; inhibition at 11210 g/ha (Wild buckwheat [19]): 90%; inhibition at 11210 g/ha (Yellow nutsedge [20]): 0%
9 | Cn1nc(-c2cc(C3=NCCO3)c(Cl)cc2F)c(Cl)c1C(F)(F)F [Compound 98] | 0% | 30% | 20% | 60% | 70% | 80% | 70% | 90% | 60% | 0% | 70% | 80% | 100% | 90% | 80% | 100% | 90% | 100% | 50% | 0% | –
